These molecules were tested against PDE 4 (cytosolic fraction from human polymorphonuclear lymphocytes (PMNLs)) (assay: Inhibition of phosphodiesterase 4 (SPA assay, [3H]-cAMP substrate)). Conditions: enzyme preparation from human PMNLs; 0.5 μM [3H]-cAMP; 37° C., 30 minutes.
Assay type: biochemical
Description: The PDE 4 activity is determined using enzyme preparations from human polymorphonuclear lymphocytes (PMNLs).
Human blood (buffy coats) was anticoagulated with citrate. The platelet-rich plasma in the supernatant is separated from the erythrocytes and leucocytes by centrifuging at 700×g for 20 minutes at room temperature (RT). The PMNLs for the PDE 4 determination are isolated by means of a subsequent dextran sedimentation followed by a gradient centrifugation using Ficoll-Paque. After the cells have been washed twice, the erythrocytes which are still present are lysed within 6 minutes by adding 10 ml of hypotonic buffer (155 mM NH4Cl, 10 mM NaHCO3, 0.1 mM EDTA, pH=7.4) at 4° C. The PMNLs, which are still intact, are washed a further two times with PBS and lysed by ultrasonication. The supernatant obtained after centrifuging at 48 000×g at 4° C. for one hour contains the cytosolic PDE 4 fraction and is used for the PDE 4 measurements.
The phosphodiesterase activity is measured using a modified Amersham Pharmacia Biotech method, i.e. an SPA (scintillation proximity assay) assay. The reaction mixtures contain buffer (50 mM tris-HCl (pH 7.4), 5 mM MgCl2, 100 μM cGMP), varying concentrations of the inhibitors, and the corresponding enzyme preparation. The reaction is started by adding the substrate, i.e. 0.5 μM [^3H]-cAMP. The final volume is 100 μl. Test substances are prepared as stock solutions in DMSO. The concentration of DMSO in the reaction mixture is 1% v/v. This DMSO concentration has no effect on PDE activity. After the reaction has been started by adding the substrate, the samples are incubated at 37° C. for 30 minutes. The reaction is stopped by adding a defined quantity of SPA beads and the samples are measured in a beta counter after one hour. The nonspecific enzyme activity (i.e. the blank) is determined in the presence of 100 μM rolipram and subtracted from the test values. The incubation mixtures for the PDE 4 assay contain 100 μM cGMP in order to inhibit any contamination of PDE 3 which may be present.
`O=C(Nc1c(Cl)cccc1Cl)C(=O)c1cn(Cc2ccc(F)cc2)c2c(O)cccc12` [Compound 17] showed an IC50 of 141 nM.
`O=C(Nc1c(Cl)cncc1Cl)C(=O)c1cn(Cc2cccc([N+](=O)[O-])c2)c2c(O)cccc12` [Compound 7] showed an IC50 of 2 nM.
`O=C(Nc1c(Cl)cncc1Cl)C(=O)c1cn(Cc2ccc(F)cc2)c2c(O)cccc12` [Compound 5] gave an IC50 of 15 nM.
With `O=C(Nc1c(Cl)cncc1Cl)C(=O)c1cn(CC2CC2)c2c(O)cccc12` [Compound 16] the IC50 was 30 nM.
In the case of `O=C(Nc1c(Cl)cncc1Cl)C(=O)c1cn(Cc2c(F)cccc2F)c2c(O)cccc12` [Compound 8], the IC50 is reported as 2 nM.
Molecule `O=C(Nc1c(Cl)cncc1Cl)C(=O)c1cn(Cc2ccc(F)cc2)c2cccc(O)c12` [Compound 4] has an IC50 of 938 nM.
`CC(C)Cn1cc(C(=O)C(=O)Nc2c(Cl)cncc2Cl)c2cccc(O)c21` [Compound 15] was tested, and the IC50 was 20 nM.
For `O=C(Nc1c(Cl)cncc1Cl)C(=O)c1cn(Cc2ccc(O)cc2)c2c(O)cccc12` [Compound 22], the IC50 was 3 nM.
With `O=C(Nc1c(Cl)cncc1Cl)C(=O)c1cn(Cc2ccc(Cl)cc2)c2c(O)cccc12` [Compound 2, N-(3,5-dichloropyrdin-4-yl)-[1-(4-chlorobenzyl)-7-hydroxyindol-3-yl]glyoxylamide] the IC50 was 2 nM.
For `O=C(Nc1c(Cl)cncc1Cl)C(=O)c1cn(Cc2ccccc2F)c2c(O)cccc12` [Compound 6], the IC50 was 1 nM.
